Test results published in PMC7915732, “Screening of Yeast Display Libraries of Enzymatically Treated Peptides to Discover Macrocyclic Peptide Ligands” (International Journal of Molecular Sciences, 2021).

Assays:
[1] = biological target: T1, WW domains of YAP (WW-YAP) (Homo sapiens, UniProt P46937); assay: Static binding assay on peptide-Toyopearl resin, Langmuir isotherm, WW-YAP; conditions: binding capacity (mg protein/mL resin), PBS pH 7.4, 1 h room temperature, Langmuir fit, average of three independent replicates ± one standard error
T1 construct: which affords the expression of the WW domains of YAP (AAs 165–271); made in house; host or cells: Rosetta E. coli
Experimental: (§1) The known WW-binding peptide sequence [sequence] […] Protein adsorption isotherms were generated by incubating the peptide-functionalized resin with soluble N-terminal YAP or WW-YAP (20 μg/mL–3 mg/mL).
(§2) The supernatants were collected and analyzed by UV spectrophotometry at 280 nm to measure the amount of unbound protein. The amount of protein adsorbed on the resin was determined via mass balance. The KD describing the binding affinity of the soluble protein to the peptide-functionalized resin was determined by fitting the adsorption data to a Langmuir isotherm:(2) q=qmax[C]/KD+[C] where q is the amount of protein adsorbed on the resin (mg protein/mL resin), [C] is the unbound concentration of protein at equilibrium (mg protein/mL solution), qmax is the maximum protein binding capacity (mg protein/mL resin), and KD is the dissociation constant (mg protein/mL solution). Equation (2) was independently fit to the data obtained from triplicate adsorption studies, and the fitted values of KD and qmax were averaged across the repeats.

N-terminal YAP (N-YAP) = biological target: T2, N-terminal YAP (N-YAP) (Homo sapiens, UniProt P46937); assay: Static binding assay on peptide-Toyopearl resin, Langmuir isotherm, N-terminal YAP; conditions: binding capacity (mg protein/mL resin), PBS pH 7.4, 1 h room temperature, Langmuir fit, average of three independent replicates ± one standard error
T2 construct: which affords the expression of N-terminal YAP (AAs 1–291); made in house; host or cells: Rosetta E. coli
T2 sequence (P46937 1-291): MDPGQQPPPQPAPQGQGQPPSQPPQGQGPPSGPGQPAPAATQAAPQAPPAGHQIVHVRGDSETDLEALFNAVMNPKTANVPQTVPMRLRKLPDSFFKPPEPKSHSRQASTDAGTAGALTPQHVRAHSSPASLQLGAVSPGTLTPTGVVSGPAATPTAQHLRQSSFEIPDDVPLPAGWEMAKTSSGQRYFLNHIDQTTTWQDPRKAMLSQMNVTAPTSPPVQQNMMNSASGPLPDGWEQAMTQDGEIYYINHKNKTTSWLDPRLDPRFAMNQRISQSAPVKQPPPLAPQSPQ
Experimental: as §1, §2

T1 sequence (P46937 165-271): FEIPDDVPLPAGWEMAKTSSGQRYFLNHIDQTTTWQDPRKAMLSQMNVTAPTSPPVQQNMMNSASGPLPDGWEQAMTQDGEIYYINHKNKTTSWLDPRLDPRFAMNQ

- Qmax WW-YAP (resin) [1]: 8.3 ± 0.27 mg/mL
- Qmax N-YAP (resin) (N-terminal YAP (N-YAP)): 4.11 ± 0.12 mg/mL
Sequence: RYSPPPPYSSHS [PTCH peptide]
